Measured values: US5618665A, “Enzymatic fluorometric assay for adenylate cyclase” (Regents of the University of Minnesota, priority 1994, dated 1997)

Legend:
adenylate cyclase [1] = assay: Effect of theophylline on basal and isoproterenol-stimulated adenylate cyclase activity; format: biochemical; settings: for Isoproterenol Stimulated adenylate cyclase activity / Fold Increase, isoproterenol stimulated: isoproterenol 10^-6 M; for Isoproterenol Stimulated adenylate cyclase activity / Basal (no isoproterenol) adenylate cyclase activity: n = 5; for Fold Increase, isoproterenol stimulated / Fold Increase, basal (no isoproterenol): vs control
Source text: To investigate the effects of theophylline on basal adenylate cyclase activity, increasing concentrations of theophylline were studied (Table 2).

adenylate cyclase [2] = assay: Adenylate cyclase activity of rabbit cardiac membranes by enzymatic fluorometric assay (ATP-ADP cycling), radioimmunoassay and Salomon's method; format: biochemical; settings: isoproterenol 10^-7 and 10^-6 M; NaF 10^-2 M; GppNHp 10^-4 M; carbachol 10^-6 M; adenosine 10^-3 M; three methods
Experimental: Adenylate cyclase activities of six different rabbit cardiac membranes under basal and drug treated conditions were assessed using the fluorometric method of the present invention, radioimmunoassay and original [alpha-^32 P] ATP method developed by Salomon. The first part of the non-radioactive fluorescent technique for measuring adenylate cyclase activity is similar to the method described in Example 2 except that 3-isobutyl-1-methylxanthine (IBMX), rather than theophylline, was used to inhibit phosphodiesterase activity. Furthermore, a series of ATP-ADP enzyme-cycling reactions was used to amplify the cAMP signal, rather then the AMP stimulation of glycogen phosphorylase a utilized in previous examples. Use of the ATP-ADP enzymatic cycling amplification step can lengthen the assay duration, depending upon the desired assay sensitivity.
A volume of 1.0 μl of either H2 O, isoproterenol, NaF, guanylyl-5'-imidodiphosphate (GppNHp), carbachol, and adenosine was added to each of six reaction tubes on ice. Next, 25 μl of cyclase mix (100 mM Tris-acetate, pH 7.4; 4.2 mM KCl; 10 mM MgCl2; 20 mM phosphoenolpyruvate; 2 mM ATP; 20 μM GTP; 2 mM dithiothreitol; 0.04% bovine serum albumin; 0.2 mM 3-isobutyl-1-methylxanthine (IBMX); 100 μg/ml pyruvate kinase) was added to each reaction tube. The stored membrane was diluted with SET buffer in a concentration of 1.5 mg of protein/ml. Finally, 25 μl of membrane suspension, which contained 37.5 μg of protein, was added to each tube, and the reaction was initiated by placing the tubes in a water bath maintained at 37° C. After 30 minutes, the reaction was terminated by heating at 90° C. for 5 minutes. […] Then, 25 μl of cyclase mix and 25 μl of boiled membrane preparation were added to each tube. After 30 minutes, the reaction was terminated by heating at 90° C. for 5 minutes.
A volume of 5 μl of reaction of product from Part A was transferred to Pyrex® tubes. For external cAMP standard, a same volume of known amount of cAMP was also added to assay tubes. Newly synthesized cAMP was measured using the following enzymatic fluorometric assay.
1. A volume of 25 μl of "cleaning" reaction mix (100 mM Tris HCl, pH 8.0; 2 mM MgCl2; 2 units/ml apyrase; 2.5 units/ml 5'-nucleotidase; 50 μg/ml adenosine deaminase; 20 units/ml alkaline phosphatase) was added to each assay tube. The mixture was incubated at 37° C. for 30 minutes. Enzymes were then destroyed by heating for 10 minutes at 90° C.
2. A volume of 25 μl of a phosphodiesterase-containing reaction mix (100 mM Tris-HCl pH 8.0; 2 mM MgCl2; 0.01% bovine serum albumin; 60 μg/m; phosphodiesterase) was added to each assay tube from Step 1. After 60 minutes at 37° C., the assay tubes were heated at 90° C. for 5 minutes.
3. A volume of 25 μl of myokinase reaction mix (100 mM Tris-HCl, pH 8.0; 2 mM MgCl2; 225 mM KCl; 200 nM ATP; 8 mM phosphoenolpyruvate; 2 mM dithiothreitol; 0.01% bovine serum albumin; 24 μg/ml myokinase; 50 μg/ml pyruvate kinase) was added to the assay tubes from Step 2. The reactions were incubated at 37° C. for 2 hours.
4. […]
5. […] After 15 minutes at room temperature, the final concentration of NADPH was measured using a fluorometer (Optical Technology Devices, Inc., New York). The fluorometer was set such that a reading of 1 fluorometric unit was equivalent to 100 pmol of NADPH in 900 μl of buffer (50 mM Tris-HCl, pH 8.0). […]

adenylate cyclase [3] = assay: Fluorometric (non-radioactive) adenylate cyclase assay, rabbit ventricular membranes; format: biochemical, rabbit (New Zealand white); settings: NaF 10^-2 M; for Agonist-stimulated adenylate cyclase activity, fluorescent assay: Iso 10^-6 M, GppNHp 10^-4 M, n = 5; for stimulated activity, reduced assay volume: membrane suspension reduced from 25 μl to 5 μl, isoproterenol 10^-6 M
Experimental: (§1) Ventricular membrane preparations were prepared from five male New Zealand white rabbits (weight 2.4 kg; W.O.R.K., Philomith, Oreg.) sacrificed by cervical concussion and immediate incision of the heart as previously described. Briefly, hearts were placed in ice-cold SET buffer (0.25M sucrose, 0.1 mM EDTA, 5.0 mM Tris HCl, pH 7.4). Portions (1-2 g) from the ventricular apex were minced and then homogenized in ice-cold SET buffer (1/10, w/v). The homogenate was filtered through a Nitex filter (three layers) (Tetko, Los Angeles, Calif.) and then centrifuged for 20 min. at 1000×g. The pellet was resuspended and centrifuged three more times. The final pellet was resuspended in SET buffer (1.5 mg protein/ml) and stored at -70° C. until enzyme activity was measured.
A volume of 1.0 μl of either H2 O, NaF, guanylyl -5'-imidodiphosphate (GppNHp), isoproterenol, or isoproterenol+GppNHp was added to each of five reaction tubes and maintained at 0° C. Next, 25 μl of reaction mixture B (tris Acetate 100 mM, pH 7.4; KCl 20 mM; MgCl2 10.0 mM; phosphoenolpyruvate 20 mM; ATP 2.0 mM; GTP 0.02 mM; dithiothreitol 2.0 mM; bovine serum albumin 0.04%; theophylline 0.2 mM; pyruvate kinase 1.0 mg/ml) were added to each reaction tube. Finally, 25 μl of membrane suspension (40 to 45 μg protein) were added to each tube and the reaction was initiated by placing the tubes in a water bath at 37° C. After 30 minutes at 37° C., the reaction was stopped by the addition of 50 μl of 50 mM NaOH. The reaction mixture was heated for 5 minutes at 95° C.
1. A volume of 20-40 μl of reaction product from Part A was added to 100 μl of cleaning reaction mix (Tris-HCl 50 mM, pH 8.0; MgCl2 5 mM; CaCl2, 2 mM; 5'-nucleotidase 0.025 units/ml; apyrase 0.02 units/ml; adenosine deaminase 0.1 mg/ml). After 30 minutes at 37° C., the reaction was terminated by heating it at 95° C. for 5 minutes.
2. […] After 60 minutes at 37° C., 600 μl of 2-amino-2-methyl-1-propanol (AMP2) 50 mM, pH 9.9 was added to the reaction mix and the final concentration of NADPH was measured fluorometrically.
Although the basal activity is nearly 3 times higher in the nonradioactive method, the "fold" stimulation is similar for both receptor-mediated agonists (isoproterenol±GppNHp) as well by NaF, which directly stimulates adenylate cyclase.
The non-radioactive assay of Example 2 is at least 5 times more sensitive than the modified Salomon radioactive assay of Example 1. In Table 3, 5 μl of membrane preparation were used to measure adenylate cyclase activity in the non-radioactivity assay compared to 25 μl with the radioactive preparations. In a separate experiment, the volume of membrane suspension was reduced from 25 μl to 5 μl. By proportionally reducing the assay volume size, no difference in basal (58.4±3.9), isoproterenol (10^-6 M) (128±7.6) or NaF (10^-2 M) (331.9±42.8) stimulated activity was observed when results were compared to larger assay volumes present. EXAMPLE 5.

adenylate cyclase [4] = assay: Radioactive adenylate cyclase assay (modified Salomon, alpha-32P-ATP), rabbit ventricular membranes; format: biochemical, rabbit (New Zealand white); settings: Iso 10^-6 M; GppNHp 10^-4 M; NaF 10^-2 M; n = 5
Experimental: as §1
A volume of 1.0 μl of either H2 O, NaF, guanylyl-5'-imidodiphosphate (GppNHp), isoproterenol, or isoproterenol+GppNHp were added to each of five reaction tubes and maintained at 0° C. […] Finally 25 μl of membrane suspension ([…]) were added to each tube and the reaction was initiated by placing the tubes in a water bath at 37° C. After 30 minutes, the reaction was terminated by the addition of 300 μl of a stopping solution which contained 0.34 HCl and ^3 H-cAMP, 10,000-20,000 cpm.
To generate the graph depicted in FIG. 2, 250 μl portions of reaction mixture A and membrane were used and 50 μl samples were removed from the 37° C. bath every 10 minutes, and stopped with 300 μl stopping solution. The assay tubes were heated at 95° C. for 5 minutes. ^32 P-cAMP was isolated using Dowex-alumina chromatography. Recovery, as assessed by ^3 H-cAMP, was 80-95%. All assays were conducted in triplicate. The time course of adenylate cyclase activity (n=5 different rabbit ventricular membrane preparations) is depicted in FIG. 1. Basal AC and agonist stimulated (0.1 mM GppNHp, 0.1 mM) AC are compared. The activity shown is (isoproterenol+GppNHp-stimulated AC activity) minus (GppNHp-stimulated activity). […]

glycogen phosphorylase a = assay: Removal of AMP by the cleaning reactions (glycogen phosphorylase a activity, NADPH fluorescence); format: biochemical; settings: 25° C.
Experimental: AMP was incubated for 60 min at 37° C. with 50 μl of either buffer (100 mM Tris-HCl, pH 8.0) or a cleaning reaction mixture containing 100 mM Tris-HCl, pH 8.0; 5 mM MgCl2. 2 mM CaCl2, 0.02 units/ml apyrase; 0.025 units/ml 5'-nucleotidase and 0.1 mg/ml adenosine deaminase.

CC(C)NCC(O)c1ccc(O)c(O)c1 (centres unmarked) [isoproterenol]
"fold" stimulation (agonist-stimulated activity/basal activity) of adenylate cyclase activity (adenylate cyclase [1]; at a given concentration of isoproterenol, in the presence of theophylline): constant | Isoproterenol Stimulated adenylate cyclase activity (adenylate cyclase [1]; control (no theophylline)): 51.73 ± 10.47 pmol/mg/min | effect on cAMP production (adenylate cyclase [2]): increased cAMP production, in a concentration-dependent manner | Agonist-stimulated adenylate cyclase activity, fluorescent assay (adenylate cyclase [3]): 110.0 ± 3.3 pmoles of cAMP/mg/min | stimulated activity, reduced assay volume (adenylate cyclase [3]): 128±7.6 | Agonist-stimulated adenylate cyclase activity, radioactive assay (adenylate cyclase [4]): 38.3 ± 2.3 pmoles of cAMP/mg/min

Cn1c(=O)c2[nH]cnc2n(C)c1=O [theophylline]
Isoproterenol Stimulated adenylate cyclase activity (adenylate cyclase [1]; theophylline 10 μM): 85.58 ± 5.56 pmol/mg/min | Fold Increase, isoproterenol stimulated (adenylate cyclase [1]; theophylline 10 μM): 1.65 fold | Basal (no isoproterenol) adenylate cyclase activity (adenylate cyclase [1]; theophylline 10 μM): 44.72 ± 4.61 pmol/mg/min | Fold Increase, basal (no isoproterenol) (adenylate cyclase [1]; theophylline 10 μM): 1.46 fold | Isoproterenol Stimulated adenylate cyclase activity (adenylate cyclase [1]; theophylline 50 μM): 93.02 ± 3.55 pmol/mg/min | Fold Increase, isoproterenol stimulated (adenylate cyclase [1]; theophylline 50 μM): 1.80 fold | Basal (no isoproterenol) adenylate cyclase activity (adenylate cyclase [1]; theophylline 50 μM): 44.63 ± 5.93 pmol/mg/min | Fold Increase, basal (no isoproterenol) (adenylate cyclase [1]; theophylline 50 μM): 1.46 fold | Isoproterenol Stimulated adenylate cyclase activity (adenylate cyclase [1]; theophylline 100 μM): 104.21 ± 3.50 pmol/mg/min | Fold Increase, isoproterenol stimulated (adenylate cyclase [1]; theophylline 100 μM): 2.01 fold | Basal (no isoproterenol) adenylate cyclase activity (adenylate cyclase [1]; theophylline 100 μM): 59.94 ± 3.63 pmol/mg/min | Fold Increase, basal (no isoproterenol) (adenylate cyclase [1]; theophylline 100 μM): 1.91 fold | Isoproterenol Stimulated adenylate cyclase activity (adenylate cyclase [1]; theophylline 500 μM): 102.67 ± 2.86 pmol/mg/min | Fold Increase, isoproterenol stimulated (adenylate cyclase [1]; theophylline 500 μM): 1.98 fold | Basal (no isoproterenol) adenylate cyclase activity (adenylate cyclase [1]; theophylline 500 μM): 53.82 ± 4.37 pmol/mg/min | Fold Increase, basal (no isoproterenol) (adenylate cyclase [1]; theophylline 500 μM): 1.75 fold | basal activity is increased (adenylate cyclase [1]; theophylline 100-500 μM): approximately 100% | increase in basal activity (adenylate cyclase [1]; theophylline > 100 μM): no significant increase in basal activity was observed

adenosine 2'- and 3'-monophosphate [AMP]
glycogen phosphorylase a activity (glycogen phosphorylase a; in the presence of the cleaning reaction mixture): remains similar to the control buffer values | glycogen phosphorylase a activity (glycogen phosphorylase a; without the cleaning step): markedly stimulated

Nc1ncnc2c1ncn2[C@@H]1O[C@H](CO)[C@@H](O)[C@H]1O [adenosine]
effect on cAMP production (adenylate cyclase [2]): inhibited

C[N+](C)(C)CCOC(N)=O [carbachol]
effect on cAMP production (adenylate cyclase [2]): inhibited

[F-].[Na+] [NaF, Sodium Fluoride]
effect on cAMP production (adenylate cyclase [2]): increased production | Agonist-stimulated adenylate cyclase activity, fluorescent assay (adenylate cyclase [3]): 346.7 ± 15.9 pmoles of cAMP/mg/min | stimulated activity, reduced assay volume (adenylate cyclase [3]): 331.9±42.8 | Agonist-stimulated adenylate cyclase activity, radioactive assay (adenylate cyclase [4]): 106.2 ± 3.5 pmoles of cAMP/mg/min

Nc1nc2c(ncn2[C@@H]2O[C@H](COP(=O)(O)OP(=O)(O)NP(=O)(O)O)[C@@H](O)[C@H]2O)c(=O)[nH]1 [GppNHp, guanylyl-5'-imidodiphosphate]
effect on cAMP production (adenylate cyclase [2]): increased production | Agonist-stimulated adenylate cyclase activity, fluorescent assay (adenylate cyclase [3]): 185.3 ± 13.7 pmoles of cAMP/mg/min | Agonist-stimulated adenylate cyclase activity, radioactive assay (adenylate cyclase [4]): 64.9 ± 3.3 pmoles of cAMP/mg/min
